Experimental data published in the NIST ThermoML archive (doi:10.1016/j.jct.2016.09.040).
Numbers after ± are expanded uncertainties.

Test: mn = molality of the nth substance listed, in mol/kg
Details: 75 kPa, Liquid; for viscosity: Capillary tube (Ostwald / Ubbelohde) method; for speed of sound: Frequency=3 MHz, Sing-around technique in a fixed-path interferometer; for mass density: Vibrating tube method

CCC(N)C(=O)O (stereo not drawn) [(.+-.)-α-aminobutyric acid] + O
Details | mass density [kg/m3] | speed of sound [m/s] | viscosity [mPa·s]
293.15 K, m1 = 0.09999 | 1001.01 ± 0.6 | 1490.7 ± 4.1 | 1.042 ± 0.031
293.15 K, m1 = 0.2999 | 1006.4 ± 0.6 | 1506.8 ± 4.1 | 1.109 ± 0.031
293.15 K, m1 = 0.4999 | 1011.57 ± 0.6 | 1522.6 ± 4.1 | 1.181 ± 0.031
293.15 K, m1 = 0.7 | 1016.56 ± 0.6 | 1538.5 ± 4.1 | 1.266 ± 0.031
293.15 K, m1 = 0.9001 | 1021.37 ± 0.6 | 1554.2 ± 4.1 | 1.358 ± 0.031
293.15 K, m1 = 1 | 1023.7 ± 0.6 | 1561.8 ± 4.1 | 1.416 ± 0.031
298.15 K, m1 = 0.09999 | 999.805 ± 0.6 | 1504.7 ± 4.1 | 0.905 ± 0.03
298.15 K, m1 = 0.2999 | 1005.12 ± 0.6 | 1519.9 ± 4.1 | 0.97 ± 0.031
298.15 K, m1 = 0.4999 | 1010.25 ± 0.6 | 1535.1 ± 4.1 | 1.057 ± 0.031
298.15 K, m1 = 0.7 | 1015.2 ± 0.6 | 1550 ± 4.1 | 1.121 ± 0.031
298.15 K, m1 = 0.9001 | 1019.98 ± 0.6 | 1565.1 ± 4.1 | 1.199 ± 0.031
298.15 K, m1 = 1 | 1022.3 ± 0.6 | 1572.4 ± 4.1 | 1.243 ± 0.031
303.15 K, m1 = 0.09999 | 998.37 ± 0.6 | 1516.8 ± 4.1 | 0.813 ± 0.03
303.15 K, m1 = 0.2999 | 1003.66 ± 0.6 | 1531.3 ± 4.1 | 0.869 ± 0.03
303.15 K, m1 = 0.4999 | 1008.75 ± 0.6 | 1545.8 ± 4.1 | 0.93 ± 0.03
303.15 K, m1 = 0.7 | 1013.66 ± 0.6 | 1560 ± 4.1 | 0.997 ± 0.031
303.15 K, m1 = 0.9001 | 1018.4 ± 0.6 | 1574.5 ± 4.1 | 1.061 ± 0.031
303.15 K, m1 = 1 | 1020.7 ± 0.6 | 1581.7 ± 4.1 | 1.097 ± 0.031
308.15 K, m1 = 0.09999 | 996.759 ± 0.6 | 1526.9 ± 4.1 | 0.731 ± 0.03
308.15 K, m1 = 0.2999 | 1002 ± 0.6 | 1540.8 ± 4.1 | 0.781 ± 0.03
308.15 K, m1 = 0.4999 | 1007.05 ± 0.6 | 1554.7 ± 4.1 | 0.834 ± 0.03
308.15 K, m1 = 0.7 | 1011.92 ± 0.6 | 1568.6 ± 4.1 | 0.891 ± 0.03
308.15 K, m1 = 0.9001 | 1016.62 ± 0.6 | 1582.5 ± 4.1 | 0.949 ± 0.031
308.15 K, m1 = 1 | 1018.9 ± 0.6 | 1589.5 ± 4.1 | 0.979 ± 0.031
313.15 K, m1 = 0.09999 | 994.9 ± 0.6 | 1535.7 ± 4.1 | 0.661 ± 0.03
313.15 K, m1 = 0.2999 | 999.99 ± 0.6 | 1548.7 ± 4.1 | 0.706 ± 0.03
313.15 K, m1 = 0.4999 | 1004.83 ± 0.6 | 1561.8 ± 4.1 | 0.754 ± 0.03
313.15 K, m1 = 0.7 | 1009.41 ± 0.6 | 1574.7 ± 4.1 | 0.804 ± 0.03
313.15 K, m1 = 0.9001 | 1013.72 ± 0.6 | 1588 ± 4.1 | 0.853 ± 0.03
313.15 K, m1 = 1 | 1015.78 ± 0.6 | 1595.1 ± 4.1 | 0.895 ± 0.03
